The target of one assay is T1, microsomal 5α-reductase (Rattus norvegicus, UniProt P24008).
T1 construct: from the livers of adult Sprague-Dawley female rats; from tissue; host or cells: liver microsomes of adult female Sprague-Dawley rats
T1 sequence (P24008 1-259): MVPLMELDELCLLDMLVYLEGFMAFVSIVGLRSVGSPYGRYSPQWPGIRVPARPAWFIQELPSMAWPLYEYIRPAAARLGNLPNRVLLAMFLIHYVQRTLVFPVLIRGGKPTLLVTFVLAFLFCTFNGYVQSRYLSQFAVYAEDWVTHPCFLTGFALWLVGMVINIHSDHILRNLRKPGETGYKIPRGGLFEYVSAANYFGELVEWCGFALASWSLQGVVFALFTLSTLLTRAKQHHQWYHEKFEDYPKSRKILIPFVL
The experiment in a line: Enzymatic assay of microsomal 5α-reductase (testosterone to 5α-DHT). To be noted: prostate or liver microsomes. Format: biochemical. A general note: Microsomes from liver hold many membrane-bound enzymes, among them those of drug oxidation.

For assay [1], the target named is T2, 5α-Reductase of Rat Liver Microsomes (Rattus norvegicus, UniProt P24008).
T2 sequence (P24008 1-259): T1 sequence (P24008 1-259)
Procedure: (§1) Briefly, the binding assay solution, in a final volume of 0.15 ml, contained microsomes (2-20 μg of protein), 0.08 μCi of [^3 H]4-MA, 0.1 mM-NADPH, 1 mM-dithiothreitol and 50 mM-potassium phosphate, pH 7.0, with or without the indicated amount of a lipid or an inhibitor preparation. Lipids were dissolved in ethanol and added in 1-5 μl volumes. Control tubes received the same amount of ethanol. After incubation at 0° C. for 1 h, the [^3 H]4-MA bound to microsomes was determined by collecting microsomes on a Whatman GF/1F glass fibre filter and washing with 10 ml of 20 mM-potassium phosphate, pH 7.0, containing 0.01% CHAPS to remove unbound [^3 H]4-MA.
(§2) Microsomes were prepared at 4° C. from a buffered 0.32M-sucrose homogenate of human liver and from the livers of adult Sprague-Dawley female rats by differential centrifugation as described previously (Liang et al., 1990), and were used in the assay of 5α-reductase activity. In some experiments, microsomes were solubilized with 0.1% polyoxyethylene ether W-1 as described previously (Liang et al., 1990), except for the substitution of polyoxyethylene ether W-1 for Lubrol-WX.

Assay [2] has as its target T2, 5α-Reductase of Rat Liver Microsomes. The experiment in a line: biochemical.
Procedure: as §1, §2
For another assay, the system named is hamster flank organ. The experiment in a line: Flank organ, castrated immature male hamsters, topical treatment. Format: in vivo, Syrian golden hamster. To be noted: for Pigmented macule Right (+T): T alone 49.6 ± 8.3; for Pigmented macule Left: Table 5, fatty acid 1 mg without T; for inhibition of T-induced growth of pigmented macule: hamster, in vivo. Here is the method:
One to two weeks after castration, the hair on the lower back of each animal was clipped with an electric hair clipper and then shaved weekly to expose the flank organs. The animals were divided into 5 animals/treatment group. A treatment solution (5 μl) was applied topically to the right flank organ once a day using a Pipetteman and a polypropylene disposable tip. Unless specified the left flank organ was not treated. The treatment solution contained either (a) ethanol alone (vehicle and control), (b) an androgen (T or 5α-DHT), (c) a fatty acid, or (d) a combination of an androgen and a fatty acid. The flank organ was wiped with an alcohol pad to remove residual compound before each treatment. […] The flank organs, both the treated and untreated sides, were evaluated with methods to be described below to determine the effect of these treatments of the growth of the pigmented macules and the sebaceous glands. The body weight of each animal was recorded before and after treatment.
The data are presented as mean ± standard deviation. […]

The next assay has as its system 5α-reductase. The experiment in a line: Catechin gallates in rat liver microsomes or cells expressing type 1 or type 2 5α-reductase. It counts as biochemical. To be noted: for inhibitory activity: vs catechin gallate.
Assay [3] concerns the target T2, 5α-Reductase of Rat Liver Microsomes. The experiment in a line: [3H]4-MA binding assay, rat liver microsomes (tea catechins). To be noted: concentrations up to 200 μM. Here is the method:
Microsomes were prepared as described previously (Liang and Liao, 1992) from the liver of adult Sprague-Dawley female rats or Rat-1A cells expressing a specific type of human 5α-reductase. Each study was carried out in duplicate or triplicate which were usually within 10% of each other. Several studies were preformed to assure that the results shown are representative. The data presented was based on the rate of reaction.
[^3 H]4-MA binding assay were described in detail previously (Liang and Liao, 1992; Liang et al., 1983). […] The reaction was started by the addition of 25 μl of microsomes (25 μg protein). After 30-60 min incubation at 0° C., the [^3 H]4-MA bound to microsomes was collected on a Whatman GF/F glass fiber, washed and radioactivity determined (Liang and Liao, 1992).

The mark [4] stands for this setting: read-out: % Inhibition of [^3 H]4-MA binding, Table 1, 40 μM.
Setting [5] is: read-out: % Inhibition of [^3 H]4-MA binding, Table 1, 200 μM.
Setting [6] is: read-out: % Inhibition of [^3 H]4-MA binding, Table 2, 10 μM.
Where [7] appears, read: read-out: % Inhibition of [^3 H]4-MA binding, Table 2, 40 μM.
The mark [8] stands for this setting: read-out: % Inhibition of [^3 H]4-MA binding, Table 2, 200 μM.
Where [9] appears, read: Table 5, T 0.5 μg + fatty acid 1 mg.
The mark [10] stands for this setting: Table 5, T 0.5 μg + fatty acid 1 mg, 21 days.
The mark [11] stands for this setting: read-out: % Inhibition of [^3 H]4-MA binding.

Like-named read-outs stand apart in the source and are kept apart here.

Procedure for microsomal 5α-reductase: as §2

As to `CCCCC/C=C/C/C=C/CCCCCCCC(=O)O` [Linolelaidic acid], the “inhibition in the enzymatic assay” value at microsomal 5α-reductase is on record as “as potent as their cis isomers”. Moreover, the “inhibitory activity in [^3 H]4-MA binding assay” value in assay [1] was “much less inhibitory than their cis isomers”. Moreover, the inhibition at 40 µM in assay [2] (setting [4]) and in assay [2] (setting [7]) was < 10% in each case. Further, the figures for the inhibition at 200 µM in assay [2] (setting [5]) and in assay [2] (setting [8]) were 19 ± 5% and 19%, respectively. For the same compound, in assay [2] (setting [6]), the inhibition at 10 µM was < 10%. Also, the “p (significance of inhibition)” value in the assay on hamster flank organ (setting [9]) is recorded as “N.S”. For the same compound, the “Pigmented macule Right (+T)” value in the assay with hamster flank organ (setting [10]) is listed as 46.6 ± 8.7 mm^2. The “Pigmented macule Left” value with hamster flank organ (21 days) came to 4.1 ± 0.7 mm^2. Also, in the assay with hamster flank organ, the “inhibition of T-induced growth of pigmented macule” value (“inhibition … of pigmented macule” for short) is “inactive”.
Regarding `Oc1cc(O)c2c(c1)OC(c1ccc(O)c(O)c1)C(O)C2` (stereo not shown) [Catechin], the inhibition entry in the assay with 5α-reductase (40 μM) is reported as “less than 25%”.
`Oc1cccc(O)c1O` [pyrogallol]: in the assay on 5α-reductase, the “inhibitory activity” value is recorded as “not as active as catechin gallate”.
For `C=CCCCCCCCCC(=O)O` [Undecylenic acid], in assay [1], the “inhibitory activity in [^3 H]4-MA binding assay” value was “inactive”. The “% Inhibition of [^3 H]4-MA binding” value in assay [1] (Table 2, 40 μM) is recorded as “NA (less than 10% inhibition were considered not active (NA))”. Moreover, in assay [2] (setting [11]), the inhibition at 10 µM was < 10%, the inhibition at 40 µM was < 10% and the inhibition at 200 µM worked out at 13 ± 2%. Further, the “p (significance of inhibition)” value in the assay with hamster flank organ (setting [9]) is “N.S”. Further, in the assay with hamster flank organ (setting [10]), the “Pigmented macule Right (+T)” value amounted to 41.7 ± 10.7 mm^2. Further, in the assay with hamster flank organ (21 days), the “Pigmented macule Left” value is 4.7 ± 1.2 mm^2. Also, the “inhibition … of pigmented macule” value with hamster flank organ was “no significant inhibition”.
In the case of `CCCCCCCC/C=C\CCCCCCCCCCCC(=O)O` [Erucic acid], the “inhibitory activity in [^3 H]4-MA binding assay” value in assay [1] was “inactive”. In addition, in assay [2], the IC50 was > 200 µM. Besides, the inhibition at 40 µM in assay [2] (setting [4]) and in assay [2] (setting [7]) was < 10% each time. The inhibition at 200 µM in assay [2] (setting [5]) and in assay [2] (setting [8]) was < 10% in each case. In addition, the inhibition at 10 µM in assay [2] (setting [6]) is < 10%. In addition, the “Percent Inhibition” value in the assay with hamster flank organ (setting [10]) is on record as 29%. The “Pigmented macule Right (+T)” value with hamster flank organ (setting [10]) amounted to 35.4 ± 4.6 mm^2. For the same compound, the “Pigmented macule Left” value in the assay with hamster flank organ (21 days) was determined as 4.6 ± 1.5 mm^2. Besides, the “inhibition … of pigmented macule” value in the assay with hamster flank organ was “Weak inhibitions”.
For the compound `CCCCCCCC/C=C/CCCCCCCC(=O)O` [Elaidic acid], the “inhibition in the enzymatic assay” value against microsomal 5α-reductase is “as potent as their cis isomers”. In addition, the “inhibitory activity in [^3 H]4-MA binding assay” value in assay [1] is listed as “much less inhibitory than their cis isomers”. Further, the inhibition at 10 µM in assay [2] (read-out: % Inhibition of [^3 H]4-MA binding, Table 1, 10 μM) was < 10%; in assay [2] (setting [6]), < 10%. Further, the inhibition at 40 µM in assay [2] (setting [4]) and in assay [2] (setting [7]) was < 10% throughout. The inhibition at 200 µM in assay [2] (setting [5]) and in assay [2] (setting [8]) was < 10% each time. Further, the “p (significance of inhibition)” value in the assay on hamster flank organ (setting [9]) is reported as “N.S”. The “Pigmented macule Right (+T)” value in the assay with hamster flank organ (setting [10]) worked out at 47.0 ± 5.9 mm^2. The “Pigmented macule Left” value in the assay with hamster flank organ (21 days) was 4.9 ± 1.1 mm^2. For the same compound, the “inhibition … of pigmented macule” value with hamster flank organ was “inactive”.
Take `COC(=O)c1cc(O)c(O)c(O)c1` [methyl gallate]: the “inhibitory activity” value with 5α-reductase is on record as “not as active as catechin gallate”.
As for `O=C(O)c1cc(O)c(O)c(O)c1` [gallic acid, reference compound], the figures for the “inhibitory activity” value (with 5α-reductase; in assay [3]) were “not as active as catechin gallate” and “not active”, respectively.
With `CCCCCCCCOC(=O)c1cc(O)c(O)c(O)c1` [n-octyl gallate], the “inhibitory activity” value in the assay with 5α-reductase is “low inhibitory activity”.
Regarding `CCCOC(=O)c1cc(O)c(O)c(O)c1` [n-propyl gallate], the “inhibitory activity” value with 5α-reductase is on record as “not as active as catechin gallate”.
On to `NC(=O)c1cc(O)c(O)c(O)c1` [3,4,5-trihydroxybenzamide], for which the “inhibitory activity” value with 5α-reductase was “not as active as catechin gallate”.
As to `CCCCCCCC/C=C\CCCCCCCCCCCCCC(=O)O` [Nervonic acid], the “inhibitory activity in [^3 H]4-MA binding assay” value in assay [1] is “inactive”. For the same compound, the IC50 in assay [2] is > 200 µM. Further, the inhibition at 40 µM in assay [2] (setting [4]) and in assay [2] (setting [7]) was < 10% each time. The inhibition at 200 µM in assay [2] (setting [5]) and in assay [2] (setting [8]) was < 10% in each case. Also, in the assay with hamster flank organ (setting [9]), the “p (significance of inhibition)” value was “N.S”. The “Pigmented macule Right (+T)” value in the assay with hamster flank organ (setting [10]) was determined as 39.9 ± 5.4 mm^2. For the same compound, the “Pigmented macule Left” value with hamster flank organ (21 days) was 4.0 ± 1.5 mm^2. In addition, in the assay on hamster flank organ, the “inhibition … of pigmented macule” value is on record as “no significant inhibition”.

What is called inhibition is the percentage by which the read-out fell short of the control. For orientation: IC50 means the midpoint of a concentration-inhibition curve. Low values mean greater potency in that assay, high ones weaker potency in that assay.
